Laboratory results published in ChEMBL document CHEMBL1201862, “PubChem BioAssay data set” (2004).
Activity calls are given as the source filed them.

Experiments:
Protein RecA = biological target: T1, Protein RecA (Mycobacterium tuberculosis, UniProt P9WHJ3); assay: Fluorescence Cell-Free Homogeneous Dose Retest to Identify Inhibitors of RecA-Intein Splicing Activity. [Related pubchem assays (depositor defined):AID2097, AID2223, AID489010, AID492950]; type: functional
T1 sequence (P9WHJ3 whole entry): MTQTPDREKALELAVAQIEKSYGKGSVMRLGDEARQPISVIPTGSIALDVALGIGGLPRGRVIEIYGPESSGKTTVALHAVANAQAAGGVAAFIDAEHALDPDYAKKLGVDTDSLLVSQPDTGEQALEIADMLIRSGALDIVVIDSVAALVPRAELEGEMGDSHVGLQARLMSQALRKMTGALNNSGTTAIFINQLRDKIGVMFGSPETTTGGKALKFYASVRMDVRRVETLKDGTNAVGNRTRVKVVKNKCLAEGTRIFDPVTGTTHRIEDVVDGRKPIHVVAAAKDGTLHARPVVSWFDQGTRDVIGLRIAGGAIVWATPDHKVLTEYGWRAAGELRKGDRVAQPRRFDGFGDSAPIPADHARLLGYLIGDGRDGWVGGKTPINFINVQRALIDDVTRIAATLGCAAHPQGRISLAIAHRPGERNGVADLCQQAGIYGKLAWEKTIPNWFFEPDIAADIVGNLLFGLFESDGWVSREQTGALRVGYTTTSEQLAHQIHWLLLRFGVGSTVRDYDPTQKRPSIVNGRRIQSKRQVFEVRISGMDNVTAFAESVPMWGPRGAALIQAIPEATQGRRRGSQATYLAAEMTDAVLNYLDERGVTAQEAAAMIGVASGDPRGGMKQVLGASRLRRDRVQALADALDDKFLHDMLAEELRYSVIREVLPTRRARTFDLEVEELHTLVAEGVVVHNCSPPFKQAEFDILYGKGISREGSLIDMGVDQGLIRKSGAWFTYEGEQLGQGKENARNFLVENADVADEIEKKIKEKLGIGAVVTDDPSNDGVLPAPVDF

[1] = C. albicans growth with fluconazole, confirmation, fluorescence, retest (AID 2467); type: functional, cell-based
[2] = biological target: T2, Replicative DNA helicase DnaB (Mycobacterium tuberculosis, UniProt P9WMR3); assay: DnaB intein splicing inhibitors, dose response, biochemical, cell-free fluorescence (AID 449749); type: functional
T2 sequence (P9WMR3 whole entry): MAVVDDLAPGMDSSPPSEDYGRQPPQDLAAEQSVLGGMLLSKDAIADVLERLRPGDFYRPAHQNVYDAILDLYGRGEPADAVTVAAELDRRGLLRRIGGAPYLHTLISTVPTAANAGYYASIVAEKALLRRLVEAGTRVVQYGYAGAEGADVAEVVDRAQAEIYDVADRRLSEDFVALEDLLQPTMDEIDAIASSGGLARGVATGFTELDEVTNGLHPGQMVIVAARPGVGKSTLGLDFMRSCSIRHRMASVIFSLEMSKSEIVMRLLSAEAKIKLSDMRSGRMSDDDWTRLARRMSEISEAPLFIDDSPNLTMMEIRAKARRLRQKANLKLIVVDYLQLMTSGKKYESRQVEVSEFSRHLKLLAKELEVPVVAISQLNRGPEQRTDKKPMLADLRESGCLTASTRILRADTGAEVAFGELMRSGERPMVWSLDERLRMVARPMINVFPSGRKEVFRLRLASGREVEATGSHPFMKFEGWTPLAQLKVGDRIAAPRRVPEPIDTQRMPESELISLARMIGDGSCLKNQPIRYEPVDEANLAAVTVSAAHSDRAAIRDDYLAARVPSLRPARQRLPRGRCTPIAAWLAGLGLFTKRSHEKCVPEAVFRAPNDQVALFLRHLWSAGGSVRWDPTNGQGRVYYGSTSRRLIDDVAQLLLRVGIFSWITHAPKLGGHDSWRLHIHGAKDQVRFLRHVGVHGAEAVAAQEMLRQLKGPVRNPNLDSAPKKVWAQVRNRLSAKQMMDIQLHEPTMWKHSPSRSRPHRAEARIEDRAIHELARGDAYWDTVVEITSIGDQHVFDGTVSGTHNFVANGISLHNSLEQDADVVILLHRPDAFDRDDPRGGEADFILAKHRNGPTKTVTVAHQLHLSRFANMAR

[3] = NIH-3T3 fibroblast cytotoxicity, dose response, cytotoxicity control, cell-based, fluorescence, Alamar Blue, secondary assay (AID 2327); type: functional;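 further: NIH-3T3 mouse fibroblasts cultured with fluconazole at 8 µg/mL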
[4] = inhibitors of intracellular T. cruzi replication, confirmation, NIH3T3 host cells, beta-gal luminescence (AID 2044); type: functional, cell-based;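 further: intracellular parasites grown in NIH/3T3 mouse fibroblasts as host cells; luminescent beta-galactosidase reporter signal from transgenic T. cruzi replicating inside host cells; inhibitors lower the luminescence signal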
INS1 = assay: beta cell apoptosis inhibitors, cytokine rescue, dose response, luminescence, retest (AID 449756); type: functional, cell-based; conditions: Rattus norvegicus;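 further: cell death triggered by IL-1 beta plus TNF-alpha plus IFN-gamma mixture; protective hits raise ATP signal compared with cytokine alone wells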
[5] = Luminescent dose response cell-based high throughput screening assay for inhibitors of the Janus kinase 2 mutant JAK2V617F. [Related pubchem assays: 1446 (Primary screen.), 1521 (Confirmation assay.), 1486 (Counter screen.)]; type: functional
[6] = cytotoxicity toward NIH3T3 fibroblasts, dose response, counter-screen, cell-based, ATP luminescence, mouse fibroblasts (AID 2010); type: functional;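 further: cells exposed to compound for about 90 hours before reading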
HeLa = assay: Cytotoxicity counterscreen assay for transcriptional activators of heat shock protein 70 (Hsp70). [Related pubchem assays: 1203, 1252 ]; type: functional; conditions: Homo sapiens;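 further: cells exposed to compound for 16 hours before readout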
[7] = biological target: Sphingosine 1-phosphate receptor 2 (Homo sapiens, UniProt O95136); assay: Dose Response Cell Based Assay for Antagonists of the S1P2 Receptor. [Related pubchem assays: 856, 736 ]; type: functional
Chain of Sphingosine 1-phosphate receptor 2 (O95136 whole entry): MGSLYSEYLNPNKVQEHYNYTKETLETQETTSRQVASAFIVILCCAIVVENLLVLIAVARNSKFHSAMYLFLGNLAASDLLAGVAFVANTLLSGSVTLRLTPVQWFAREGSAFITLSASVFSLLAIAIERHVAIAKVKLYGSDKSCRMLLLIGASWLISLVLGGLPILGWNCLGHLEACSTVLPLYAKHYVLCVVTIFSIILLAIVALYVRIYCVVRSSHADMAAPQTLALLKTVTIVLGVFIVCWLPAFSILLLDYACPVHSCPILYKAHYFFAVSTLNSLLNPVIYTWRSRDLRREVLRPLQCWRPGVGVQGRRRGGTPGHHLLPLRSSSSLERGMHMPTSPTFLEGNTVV

HEK293 = assay: Fluorescence-based counterscreen for potentiators or agonists of NPY-Y2: cell-based high-throughput dose response assay to identify inhibitors of cyclic nucleotide gated ion channel (CNGC) activity. In this assay, the parental HEK293 cell line transfected with a cyclic-nucleotide gated ion channel (CNGC)-based cAMP sensor is used to measure inhibition of isoproterenol-induced CNGC activity by test compound.; type: functional; conditions: Homo sapiens;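 further: stimulus is 1 µM isoproterenol at EC100 plus PDE inhibitor Ro 20-1724 at 25 µM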
[8] = biological target: T3, Neuropeptide Y receptor type 2 (Homo sapiens, UniProt P49146); assay: Fluorescence-based cell-based high-throughput dose response assay for agonists of NPY-Y2. [Related pubchem assays: 1703 (Screening assay (CNGC inhibitors).), 1359 (Screening assay (NPY-Y2 potentiators or agonists).), 1304 (Screening assay (NPY-Y1 potentiators or agonists).), 1710 (Screening assay (NPY-Y2 agonists).), 1791 (Summary AID.)]; type: functional
T3 sequence (P49146 whole entry): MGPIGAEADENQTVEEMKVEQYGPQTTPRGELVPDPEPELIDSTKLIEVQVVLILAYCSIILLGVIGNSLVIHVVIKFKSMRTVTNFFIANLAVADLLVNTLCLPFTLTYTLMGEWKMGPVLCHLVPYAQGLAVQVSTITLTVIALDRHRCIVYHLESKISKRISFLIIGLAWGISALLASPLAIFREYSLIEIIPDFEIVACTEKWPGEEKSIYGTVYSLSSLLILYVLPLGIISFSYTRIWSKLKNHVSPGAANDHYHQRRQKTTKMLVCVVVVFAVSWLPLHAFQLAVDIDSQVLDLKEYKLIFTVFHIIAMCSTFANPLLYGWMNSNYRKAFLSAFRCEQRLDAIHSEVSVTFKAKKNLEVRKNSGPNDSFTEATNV

[9] = biological target: T4, Neuropeptide Y receptor type 1 (Homo sapiens, UniProt P25929); assay: Fluorescence-based counterscreen for agonists of NPY-Y2: cell-based high-throughput dose response assay for agonists of NPY-Y1.; type: functional
T4 sequence (P25929 whole entry): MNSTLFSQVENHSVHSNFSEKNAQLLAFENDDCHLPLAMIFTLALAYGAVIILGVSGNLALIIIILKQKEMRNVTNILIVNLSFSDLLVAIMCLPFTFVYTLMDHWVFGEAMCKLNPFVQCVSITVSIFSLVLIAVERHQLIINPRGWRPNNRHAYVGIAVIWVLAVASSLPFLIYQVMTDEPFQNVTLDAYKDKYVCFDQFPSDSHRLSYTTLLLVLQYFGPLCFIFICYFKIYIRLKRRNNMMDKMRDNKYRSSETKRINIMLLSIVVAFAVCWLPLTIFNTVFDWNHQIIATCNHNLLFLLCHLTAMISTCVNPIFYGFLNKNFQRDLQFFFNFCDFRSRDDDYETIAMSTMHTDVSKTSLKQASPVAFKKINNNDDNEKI

[10] = biological target: Tyrosine-protein phosphatase non-receptor type 11 (Homo sapiens, UniProt Q06124); assay: SHP2 phosphatase inhibition, dose response, selectivity assay for STEP inhibitor project, biochemical (AID 602367); type: functional; conditions: read-out: IC50_Mean
Chain of Tyrosine-protein phosphatase non-receptor type 11 (Q06124 whole entry): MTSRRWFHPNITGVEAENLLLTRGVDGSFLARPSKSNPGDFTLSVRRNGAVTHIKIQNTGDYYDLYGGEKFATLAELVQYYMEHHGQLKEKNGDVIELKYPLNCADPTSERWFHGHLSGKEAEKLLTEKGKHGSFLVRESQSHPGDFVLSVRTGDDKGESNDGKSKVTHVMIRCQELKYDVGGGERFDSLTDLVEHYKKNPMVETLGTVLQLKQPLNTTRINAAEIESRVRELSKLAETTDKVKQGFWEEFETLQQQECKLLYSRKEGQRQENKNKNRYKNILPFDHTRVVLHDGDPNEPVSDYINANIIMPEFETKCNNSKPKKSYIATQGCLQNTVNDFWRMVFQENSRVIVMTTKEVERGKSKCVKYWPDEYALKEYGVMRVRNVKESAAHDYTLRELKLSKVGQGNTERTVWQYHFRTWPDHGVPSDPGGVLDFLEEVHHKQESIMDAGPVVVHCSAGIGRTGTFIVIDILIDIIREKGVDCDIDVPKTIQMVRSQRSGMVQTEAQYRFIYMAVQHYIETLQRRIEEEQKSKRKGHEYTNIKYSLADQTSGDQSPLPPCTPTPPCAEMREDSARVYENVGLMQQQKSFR

Bcl-2-like protein 1 = Bcl-2-like protein 1 (Homo sapiens, UniProt Q07817); assay: BCL-XL inhibitors, dose response, selectivity assay for MCL1 inhibitor project, biochemical, fluorescence polarization, 1536-well (AID 2218)
Chain of Bcl-2-like protein 1 (Q07817 whole entry): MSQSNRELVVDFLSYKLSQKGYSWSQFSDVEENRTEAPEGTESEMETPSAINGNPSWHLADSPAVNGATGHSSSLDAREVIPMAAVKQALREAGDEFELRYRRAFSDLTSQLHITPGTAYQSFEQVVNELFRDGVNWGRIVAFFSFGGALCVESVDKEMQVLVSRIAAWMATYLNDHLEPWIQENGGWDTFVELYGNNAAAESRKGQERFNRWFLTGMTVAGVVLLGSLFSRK

[11] = biological target: Induced myeloid leukemia cell differentiation protein Mcl-1 (Homo sapiens, UniProt Q07820); assay: MCL1-BIM BH3 interaction inhibitors, dose response, biochemical, fluorescence polarization, BIM-BH3 peptide, 1536-well (AID 2217)
Chain of Induced myeloid leukemia cell differentiation protein Mcl-1 (Q07820 whole entry): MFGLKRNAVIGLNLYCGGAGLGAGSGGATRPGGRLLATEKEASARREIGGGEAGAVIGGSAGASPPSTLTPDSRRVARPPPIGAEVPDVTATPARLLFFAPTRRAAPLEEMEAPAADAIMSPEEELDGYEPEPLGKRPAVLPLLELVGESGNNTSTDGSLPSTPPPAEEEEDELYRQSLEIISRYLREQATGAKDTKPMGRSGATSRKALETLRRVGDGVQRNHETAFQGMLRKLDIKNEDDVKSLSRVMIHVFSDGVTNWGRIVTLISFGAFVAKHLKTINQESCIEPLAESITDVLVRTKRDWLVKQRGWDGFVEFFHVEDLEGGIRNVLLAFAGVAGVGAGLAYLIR

[12] = biological target: Tyrosine-protein phosphatase non-receptor type 5 (Homo sapiens, UniProt P54829); assay: STEP phosphatase inhibitors, confirmation, biochemical, fluorescence intensity, uHTS hits (AID 602372); type: functional; conditions: read-out: IC50_Mean
Chain of Tyrosine-protein phosphatase non-receptor type 5 (P54829 whole entry): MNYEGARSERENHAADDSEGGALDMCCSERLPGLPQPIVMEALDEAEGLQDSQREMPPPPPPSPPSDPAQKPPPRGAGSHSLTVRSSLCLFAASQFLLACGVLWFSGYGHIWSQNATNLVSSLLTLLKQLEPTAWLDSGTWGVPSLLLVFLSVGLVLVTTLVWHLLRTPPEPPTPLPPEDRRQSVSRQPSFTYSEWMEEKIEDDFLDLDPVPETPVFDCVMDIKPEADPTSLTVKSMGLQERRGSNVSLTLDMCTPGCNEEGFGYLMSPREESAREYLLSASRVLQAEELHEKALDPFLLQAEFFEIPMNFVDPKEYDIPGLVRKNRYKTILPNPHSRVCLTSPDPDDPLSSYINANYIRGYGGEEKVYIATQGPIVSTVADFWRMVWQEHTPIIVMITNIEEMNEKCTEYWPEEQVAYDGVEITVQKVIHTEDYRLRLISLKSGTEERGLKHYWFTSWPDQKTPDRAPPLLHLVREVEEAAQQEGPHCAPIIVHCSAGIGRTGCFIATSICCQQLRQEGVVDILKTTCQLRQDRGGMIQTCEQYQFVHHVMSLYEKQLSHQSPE

[13] = biological target: T5, Small ubiquitin-related modifier 1 (Homo sapiens, UniProt P63165); assay: inhibitors of SUMO1 partner interactions, dose response, biochemical, FRET (AID 624383); type: functional; conditions: read-out: IC50_Mean
T5 sequence (P63165 whole entry): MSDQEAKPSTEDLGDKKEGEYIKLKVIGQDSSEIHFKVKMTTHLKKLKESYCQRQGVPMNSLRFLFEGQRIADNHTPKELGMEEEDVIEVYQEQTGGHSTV

[14] = biological target: T5, Small ubiquitin-related modifier 1; assay: inhibitors of SUMO1 peptide binding, dose response, biochemical, fluorescence polarization, uHTS hits (AID 624382); type: functional; conditions: read-out: IC50_Mean
[15] = biological target: Dual specificity protein phosphatase 3 (Homo sapiens, UniProt P51452); assay: VHR phosphatase inhibition, dose response, selectivity assay for STEP inhibitor project, biochemical (AID 602374); type: functional; conditions: read-out: IC50_Mean
Chain of Dual specificity protein phosphatase 3 (P51452 whole entry): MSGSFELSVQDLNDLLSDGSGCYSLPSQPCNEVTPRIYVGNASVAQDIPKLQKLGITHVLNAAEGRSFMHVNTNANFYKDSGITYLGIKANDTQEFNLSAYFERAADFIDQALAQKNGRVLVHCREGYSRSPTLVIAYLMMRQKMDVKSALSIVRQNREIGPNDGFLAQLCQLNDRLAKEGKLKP

[16] = enhancers of respiration in Yfh1-depleted yeast, dose response, Friedreich's ataxia, plus single-dose screen (AID 1465); type: functional;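 further: yeast depleted of Yfh1p frataxin homolog grown on glycerol needing respiration; WST-1 tetrazolium dye reduction as measure of cellular dehydrogenase metabolic activity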
[17] = biological target: T4, Neuropeptide Y receptor type 1; assay: NPY-Y1 receptor antagonist potency, dose response, cell-based (AID 1277); type: functional
[18] = biological target: T3, Neuropeptide Y receptor type 2; assay: NPY-Y2 antagonist potency, selectivity check, dose response, counter-screen for NPY-Y1 antagonist project, cell-based (AID 1278); type: functional
[19] = biological target: Dual specificity tyrosine-phosphorylation-regulated kinase 1A (Rattus norvegicus, UniProt Q63470); type: biochemical, Homo sapiens
BJ [20] = assay: cytotoxicity toward BJ-TERT fibroblasts, dose response, cell-based, RAS-independent, luminescence (AID 1933); type: functional; conditions: Homo sapiens
BJ [21] = assay: cytotoxicity toward BJ-TERT-LT-ST fibroblasts, dose response, cell-based, RAS-independent, luminescence (AID 1935); type: functional; conditions: Homo sapiens;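 further: BJ fibroblasts immortalized with TERT plus LT and ST oncogenes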
[22] = Luminescence-based counterscreen assay for KLF5 inhibitors: dose response cell-based high throughput screening assay to identify cytotoxic compounds using the IEC-6 intestinal epithelial cell line. [Related pubchem assays: 1700 (Primary screen.), 1834 (Confirmation screen.), 1858 (Summary AID.), 1905 (Counterscreen.)]; type: functional
[23] = cytotoxicity toward DRD oncogenic fibroblasts, dose response, cell-based, non-viral oncogenic, luminescence (AID 1934); type: functional; conditions: Homo sapiens
BJ [24] = assay: cells; type: functional, cell-based; conditions: Homo sapiens

For `O=C(OCn1ncc(Cl)c(Cl)c1=O)c1ccc(F)cc1`, the EC50 (Protein RecA) was 0.938 µM (active), the EC50 [1] was > 38 µM (not active) and the AC50 [2] was 5.07 µM (active). The EC50 [3] was 1.85 µM (inconclusive), the EC50 [4] was 1.16 µM (active) and the AC50 (INS1) was 7.34 µM (active). The IC50 [5] was 0.351 µM (active), the EC50 [6] was 1.04 µM (active) and the CC50 (HeLa) was 21.7 µM (not active). For the same compound, the IC50 [7] was 3.76 µM (active).

For `COc1ccc(N2CCN(CC(O)COc3ccccc3[N+](=O)[O-])CC2)cc1` (centres undefined), the EC50 (HEK293) was 2.43 µM (active), the EC50 [8] was 12.3 µM (not active) and the EC50 [9] was 9.49 µM (active).

In the case of `O=C(N/N=C/c1ccncc1)c1cccc(S(=O)(=O)Nc2ccc(Cl)cc2)c1`, the IC50 [10] is reported as 2.6 µM (active), the IC50 (Bcl-2-like protein 1) is reported as > 109 µM (not active) and the IC50 [11] is reported as 11.3 µM (not active). For the same compound, the IC50 [12] was 14.7 µM (active), the IC50 [13] was 10.3 µM (active) and the IC50 [14] was > 66.6 µM (inactive). For the same compound, the IC50 [15] was 2.87 µM (active).

With `COc1ccc2ccccc2c1C(=O)/C=C\c1ccoc1` the EC50 [16] was > 100 µM (active).

In the case of `CCc1cccc(CC)c1NC(=O)C(NS(=O)(=O)c1cccs1)c1ccccc1` (centres undefined), the IC50 [17] is reported as > 35 µM (not active) and the IC50 [18] is reported as > 35 µM (not active).

For `COc1ccc2[nH]c(C(=O)N/N=C/c3ccc(OC)c(O)c3)cc2c1`, the AC50 [19] was 1.04 µM (active), the EC50 (BJ [20]) was 1.89 µM (active) and the EC50 (BJ [21]) was 50.5 µM (inconclusive). For the same compound, the IC50 [22] was 20.4 µM (not active), the EC50 [23] was 41.7 µM (inconclusive) and the EC50 (BJ [24]) was 59.5 µM (inconclusive).
